Results as given in patent US7560529B2, “Method for producing catalytic antibodies (variants), antigens for immunization and nucleotide sequence” (FDS Pharma, priority 2001, dated 2009).

Tested on: CD4+ T-lymphocytes from SJL mice
Assay: Flow cytometry of surface marker expression in T-lymphocytes of immunized SJL mice
Format: in vivo
Excerpt: To characterize the features of immune response development upon immunization with a fusion protein comprising the neuroantigen MBP, a comparative analysis of specific surface markers expression in T-lymphocytes from SJL mice that were not immunized (control), from mice immunized with the synthetic peptide MBP89-104, recombinant fusion protein gp120I-IIImbp (the product of Construct No. 15 (see FIG. 3) at two different doses and recombinant protein gp120I-III (the product of Construct No. 13 (see FIG. 3) was carried out (FIG. 11). All the immunizations were performed in parallel under identical conditions as described above. Twenty one days after the beginning of an experiment, CD4+ T-lymphocytes isolated from two mice of each group were analyzed by flow cytometry. A specific feature of SJL mice was initially low CD8+ T-cell counts.

Q: How did the “T-cell immune response by day 21 after immunization (surface markers CD11a, CD44, CD45RB, CD62-L)” value turn out when “VVHFFKNIVTPRTPPPS [peptide MBP, encephalitogenic 89-104 peptide of the myelin basic protein, reference compound]” was run?
A: The value was “fully developed T-cell immune response”.
